Source: paper PMC6479757, “Coralmycin Derivatives with Potent Anti-Gram Negative Activity Produced by the Myxobacteria Corallococcus coralloides M23” (Molecules, 2019)
pIC50: −log10 of the molar value. Values after ≈ are worked out from the molar mass of the structure shown. Where two headings read alike, the source gives them in different places.

What was measured:
E. coli DNA gyrase = molecular target: T1, E. coli DNA gyrase (Escherichia coli, UniProt P0AES4+P0AES6); assay: DNA gyrase supercoiling assay; format: biochemical
T1 construct: purchased TopoGEN TG2001G
T1 sequence (P0AES4 whole entry, one chain of several): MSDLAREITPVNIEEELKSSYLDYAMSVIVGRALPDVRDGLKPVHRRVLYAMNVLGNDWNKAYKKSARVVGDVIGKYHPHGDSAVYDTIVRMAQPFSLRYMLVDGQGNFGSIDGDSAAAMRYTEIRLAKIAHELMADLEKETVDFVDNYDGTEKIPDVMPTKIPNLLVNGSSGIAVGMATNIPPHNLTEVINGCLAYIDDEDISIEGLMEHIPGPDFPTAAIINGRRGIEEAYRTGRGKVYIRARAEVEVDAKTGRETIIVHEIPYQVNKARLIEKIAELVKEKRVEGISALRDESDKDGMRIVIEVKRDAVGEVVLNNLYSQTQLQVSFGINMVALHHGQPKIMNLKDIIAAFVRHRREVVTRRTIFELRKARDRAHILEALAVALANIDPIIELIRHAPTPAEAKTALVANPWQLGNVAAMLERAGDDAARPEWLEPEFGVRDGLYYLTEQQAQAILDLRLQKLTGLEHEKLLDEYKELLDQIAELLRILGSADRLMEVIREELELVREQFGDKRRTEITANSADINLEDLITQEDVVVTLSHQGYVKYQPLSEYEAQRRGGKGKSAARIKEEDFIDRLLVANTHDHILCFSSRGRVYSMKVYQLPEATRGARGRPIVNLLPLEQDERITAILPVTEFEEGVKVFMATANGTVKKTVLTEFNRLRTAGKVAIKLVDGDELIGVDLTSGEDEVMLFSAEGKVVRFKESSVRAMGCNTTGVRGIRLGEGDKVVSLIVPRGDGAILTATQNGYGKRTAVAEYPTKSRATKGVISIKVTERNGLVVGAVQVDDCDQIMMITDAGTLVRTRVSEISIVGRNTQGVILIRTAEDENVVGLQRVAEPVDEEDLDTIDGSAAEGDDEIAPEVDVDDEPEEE
Description: The inhibitory activities of coralmycins on the supercoiling activity of DNA gyrase were investigated using a ‘Purified E. coli DNA Gyrase Drug Screening Kit’ (TopoGEN #TG2001G, Buena Vista, CO, USA). […] The reaction was terminated by the addition of 2 μL of 10% (w/v) SDS and 2 μL of 10× DNA gel loading dye (bromophenol blue). Then, 20 μL of chloroform:isoamyl alcohol (24:1 mixture) was added, and the mixture was vortexed and then centrifuged. The samples in the blue phase were run on 1% (w/v) agarose gel and were visualized using ethidium bromide. All reactions were performed in triplicate. To calculate the IC50 values, the band densities were measured using ImageJ (National Institutes of Health, Bethesda, Maryland, MD, USA).

[1] = tested on: Pseudomonas aeruginosa KCTC 2004; assay: Antibacterial susceptibility, broth microdilution MIC; format: cell-based; conditions: for MIC: KCTC2004, Pseudomonas aeruginosa KCTC 2004, 24-h incubation at 37 °C; for antibacterial activities against P. aeruginosa: in words
Description: (§1) Whole-cell antimicrobial activities were determined using a broth microdilution method described previously. Most of the test strains were grown to mid-log phase in Mueller–Hinton broth and diluted 1,000-fold in the same medium. Cells (10^5/mL) were dispensed at 0.2 mL/well in 96-well microtiter plates. Streptococcus pneumonia and Acinetobacter baumanii were grown in Todd–Hewitt medium and nutrient broth, respectively. […]. Cells were treated with 0.05% DMSO as a vehicle control. The MICs were determined in triplicate by serial two-fold dilutions of the test compounds. […] Bacterial growth was determined by measuring the absorption at 650 nm using a microtiter enzyme-linked immunosorbent assay (ELISA) reader (Molecular Devices Corporation, Sunnyvale, CA, USA).

[2] = tested on: Klebsiella pneumoniae KCTC 22057; assay: as above; format: cell-based; conditions: for MIC: KCTC22057, Klebsiella pneumoniae KCTC 22057, 24-h incubation at 37 °C; for growth inhibition of K. pneumonia: at 32 μg/mL
Description: as §1

MRSA CCARM 3167 = assay: as above; format: cell-based; conditions: Staphylococcus aureus, 24-h incubation at 37 °C
Description: as §1

MRSA CCARM 3506 = assay: as above; format: cell-based; conditions: Staphylococcus aureus, 24-h incubation at 37 °C
Description: as §1

[3] = tested on: Enterococcus faecalis KCTC 5191; assay: as above; format: cell-based; conditions: KCTC5191, 24-h incubation at 37 °C
Description: as §1

E. coli KCTC 1682 = assay: as above; format: cell-based; conditions: Escherichia coli
Description: as §1

[4] = tested on: Streptococcus pneumonia KCTC 5412; assay: as above; format: cell-based; conditions: Streptococcus pneumoniae, KCTC5412, Todd–Hewitt medium, 24-h incubation at 37 °C
Description: as §1

QRSA CCARM 3519 = assay: as above; format: cell-based; conditions: Staphylococcus aureus
Description: as §1

E. coli CCARM 1356 = assay: as above; format: cell-based; conditions: Escherichia coli, CCARM1356, 24-h incubation at 37 °C
Description: as §1

[5] = tested on: Acinetobacter baumannii KCTC 2508; assay: as above; format: cell-based; conditions: KCTC2508, nutrient broth, 24-h incubation at 37 °C
Description: as §1

QRSA CCARM 3505 = assay: as above; format: cell-based; conditions: Staphylococcus aureus
Description: as §1

[6] = tested on: Staphylococcus aureus RN 4220; assay: as above; format: cell-based; conditions: RN4220, 24 h
Description: (§2) Whole-cell antimicrobial activities were determined using a broth microdilution method described previously. Most of the test strains were grown to mid-log phase in Mueller–Hinton broth and diluted 1,000-fold in the same medium. Cells (10^5/mL) were dispensed at 0.2 mL/well in 96-well microtiter plates. Streptococcus pneumonia and Acinetobacter baumanii were grown in Todd–Hewitt medium and nutrient broth, respectively. […] Cells were treated with 0.05% DMSO as a vehicle control. The MICs were determined in triplicate by serial two-fold dilutions of the test compounds. […] Bacterial growth was determined by measuring the absorption at 650 nm using a microtiter enzyme-linked immunosorbent assay (ELISA) reader (Molecular Devices Corporation, Sunnyvale, CA, USA).

Gram-negative bacteria = assay: Antibacterial activity against Gram-negative bacteria; format: cell-based; conditions: at 32 μg/mL
Description: as §2

tested bacterial strains = assay: Antibacterial activity against all tested strains; format: cell-based; conditions: at 32 μg/mL
Description: as §2

[7] = KCTC1682, 24-h incubation at 37 °C, Table 6 and Table S1, read-out: MIC
[8] = KCTC1682, Table 7, read-out: MIC, antibacterial activity on E. coli KCTC 1682
[9] = CCARM3519, QRSA CCARM 3519, 24-h incubation at 37 °C, read-out: MIC
[10] = CCARM3505, QRSA CCARM 3505, 24-h incubation at 37 °C, read-out: MIC
[11] = relaxed plasmid, 37 °C for 30 min, agarose gel band densities, read-out: IC50, inhibition of the supercoiling activity of E. coli DNA gyrase
[12] = KCTC1682, 24 h, Table 7, read-out: MIC, antibacterial activity on E. coli KCTC 1682

Structure (SMILES) | MIC [1] [µg/mL] | MIC [2] [µg/mL] | MIC (MRSA CCARM 3167) [µg/mL] | MIC (MRSA CCARM 3506) [µg/mL] | MIC [3] [µg/mL] | MIC (E. coli KCTC 1682; [7]) [µg/mL] | MIC (E. coli KCTC 1682; [8]) [µg/mL] | MIC [4] [µg/mL] | MIC (QRSA CCARM 3519; [9]) [µg/mL] | MIC (E. coli CCARM 1356) [µg/mL] | MIC [5] [µg/mL] | MIC (QRSA CCARM 3505; [10]) [µg/mL] | MIC [6] [µg/mL] | pIC50 (E. coli DNA gyrase; [11]) | other results
CCOc1cc(C(=O)O)ccc1NC(=O)c1ccc(NC(=O)c2ccc(N)cc2)c(OCC)c1O [Compound 4, Coralmycin F] | > 32 | > 32 | > 32 | > 32 | > 32 | > 32 | > 32 | > 32 | > 32 | > 32 | > 32 | > 32 | > 32 | – | pIC50 (E. coli DNA gyrase): < 3.52
CCOc1c(NC(=O)c2ccc(N)cc2)ccc(C(=O)Nc2ccc(C(=O)O)cc2OC(C)C)c1O [Compound 6, Coralmycin H] | > 32 | > 32 | > 32 | > 32 | > 32 | > 32 | – | > 32 | > 32 | > 32 | > 32 | > 32 | > 32 | – | –
CO[C@@H](C(N)=O)[C@H](NC(=O)c1ccc(NC(=O)c2ccc([N+](=O)[O-])cc2)cc1)C(=O)Nc1ccc(C(=O)Nc2ccc(C(=O)Nc3ccc(C(=O)O)cc3OC(C)C)c(O)c2OC(C)C)cc1 [Compound 11, cystobactamid 919-2, reference compound] | 4 (≈ 4.35 µM) | 4 (≈ 4.35 µM) | 0.25 (≈ 0.272 µM) | 0.25 (≈ 0.272 µM) | 0.25 (≈ 0.272 µM) | 1 (≈ 1.09 µM) | 1 (≈ 1.09 µM) | 1 (≈ 1.09 µM) | 1 (≈ 1.09 µM) | 2 (≈ 2.17 µM) | 2 (≈ 2.17 µM) | 1 (≈ 1.09 µM) | 0.125 (≈ 0.136 µM) | 6.02 | –
CO[C@H](C(=O)O)[C@H](NC(=O)c1ccc(NC(=O)c2ccc([N+](=O)[O-])cc2)cc1)C(=O)Nc1ccc(C(=O)Nc2ccc(C(=O)Nc3ccc(C(=O)O)cc3OC(C)C)c(O)c2OC(C)C)cc1 [Compound 13, coralmycin B, reference compound] | > 16 | > 16 | 1 (≈ 1.09 µM) | 1 (≈ 1.09 µM) | 4 (≈ 4.34 µM) | 4 (≈ 4.34 µM) | 4 (≈ 4.34 µM) | > 16 | – | 16 (≈ 17.4 µM) | 4 (≈ 4.34 µM) | – | 2 (≈ 2.17 µM) | 5.97 | –
COc1cc(C(=O)O)ccc1NC(=O)c1ccc(NC(=O)c2ccc(NC(=O)[C@@H](NC(=O)c3ccc(NC(=O)c4ccc([N+](=O)[O-])cc4)cc3)[C@@H](OC)C(N)=O)cc2)c(OC(C)C)c1O [Compound 8, cystobactamid 891-2] | 4 (≈ 4.49 µM) | > 32 | 0.5 (≈ 0.561 µM) | 0.125 (≈ 0.14 µM) | 1 (≈ 1.12 µM) | 0.25 (≈ 0.28 µM) | – | 2 (≈ 2.24 µM) | 1 (≈ 1.12 µM) | 0.5 (≈ 0.561 µM) | 1 (≈ 1.12 µM) | 2 (≈ 2.24 µM) | 0.25 (≈ 0.28 µM) | 7.30 | antibacterial activities against P. aeruginosa [1]: weak antibacterial activities; growth inhibition of K. pneumonia [2]: did not inhibit the growth; MIC (E. coli KCTC 1682; [12]): 0.25 µg/mL (≈ 0.28 µM)
CO[C@@H](C(N)=O)[C@H](NC(=O)c1ccc(NC(=O)c2ccc(N)cc2)cc1)C(=O)Nc1ccc(C(=O)Nc2ccc(C(=O)Nc3ccc(C(=O)O)cc3OC(C)C)c(O)c2OC(C)C)cc1 [Compound 2, Coralmycin D] | > 32 | > 32 | 0.5 (≈ 0.562 µM) | 0.5 (≈ 0.562 µM) | 1 (≈ 1.12 µM) | 1 (≈ 1.12 µM) | 1 (≈ 1.12 µM) | 2 (≈ 2.25 µM) | 1 (≈ 1.12 µM) | 1 (≈ 1.12 µM) | 4 (≈ 4.49 µM) | 1 (≈ 1.12 µM) | 0.25 (≈ 0.281 µM) | 6.29 | growth inhibition of P. aeruginosa ([1]; at 32 μg/mL): did not inhibit the growth; growth inhibition of K. pneumonia [2]: did not inhibit the growth
CCOc1cc(C(=O)O)ccc1NC(=O)c1ccc(NC(=O)c2ccc(NC(=O)[C@@H](NC(=O)c3ccc(NC(=O)c4ccc([N+](=O)[O-])cc4)cc3)[C@@H](OC)C(N)=O)cc2)c(OC(C)C)c1O [Compound 9, cystobactamid 905-2] | 8 (≈ 8.83 µM) | > 32 | 0.25 (≈ 0.276 µM) | 0.25 (≈ 0.276 µM) | 0.5 (≈ 0.552 µM) | 0.5 (≈ 0.552 µM) | – | 1 (≈ 1.1 µM) | 1 (≈ 1.1 µM) | 1 (≈ 1.1 µM) | 0.5 (≈ 0.552 µM) | 2 (≈ 2.21 µM) | 0.125 (≈ 0.138 µM) | 6.89 | antibacterial activities against P. aeruginosa [1]: weak antibacterial activities; growth inhibition of K. pneumonia [2]: did not inhibit the growth; MIC (E. coli KCTC 1682; [12]): 0.25 µg/mL (≈ 0.276 µM)
O=C(O)c1cn(C2CC2)c2cc(N3CCNCC3)c(F)cc2c1=O [Cip, Ciprofloxacin, reference compound] | 0.03 (≈ 0.0905 µM) | 0.015 (≈ 0.0453 µM) | – | 2 (≈ 6.04 µM) | 0.5 (≈ 1.51 µM) | 0.06 (≈ 0.181 µM) | 0.06 (≈ 0.181 µM) | 0.25 (≈ 0.754 µM) | – | 64 (≈ 193 µM) | 0.25 (≈ 0.754 µM) | – | – | – | MIC (QRSA CCARM 3519; CCARM3519, 24 h): 128 µg/mL (≈ 386 µM); MIC (QRSA CCARM 3505; CCARM3505, 24 h): 128 µg/mL (≈ 386 µM)
CCOc1cc(C(=O)O)ccc1NC(=O)c1ccc(NC(=O)c2ccc(N)cc2)c(OC(C)C)c1O [Compound 7, Coralmycin I] | > 32 | > 32 | > 32 | > 32 | > 32 | > 32 | – | > 32 | > 32 | > 32 | > 32 | > 32 | > 32 | – | –
CO[C@@H](C(=O)O)[C@H](NC(=O)c1ccc(NC(=O)c2ccc([N+](=O)[O-])cc2)cc1)C(=O)Nc1ccc(C(=O)Nc2ccc(C(=O)Nc3ccc(C(=O)O)cc3OC(C)C)c(O)c2OC(C)C)cc1 [Compound 1, Coralmycin C] | > 32 | > 32 | 4 (≈ 4.34 µM) | 4 (≈ 4.34 µM) | 8 (≈ 8.69 µM) | > 32 | > 32 | 4 (≈ 4.34 µM) | 4 (≈ 4.34 µM) | > 32 | > 32 | 4 (≈ 4.34 µM) | 4 (≈ 4.34 µM) | 6.38 | antibacterial activity against Gram-negative bacteria (Gram-negative bacteria): no antibacterial activity
CO[C@@H](C(N)=O)[C@H](NC(=O)c1ccc(N)cc1)C(=O)Nc1ccc(C(=O)Nc2ccc(C(=O)Nc3ccc(C(=O)O)cc3OC(C)C)c(O)c2OC(C)C)cc1 [Compound 3, Coralmycin E] | > 32 | > 32 | > 32 | > 32 | > 32 | > 32 | > 32 | > 32 | > 32 | > 32 | > 32 | > 32 | > 32 | 4.41 | antibacterial activities against any of the tested bacterial strains (tested bacterial strains): no antibacterial activities
COc1cc(C(=O)O)ccc1NC(=O)c1ccc(NC(=O)c2ccc(N)cc2)c(OC(C)C)c1O [Compound 5, Coralmycin G] | > 32 | > 32 | > 32 | > 32 | > 32 | > 32 | – | > 32 | > 32 | > 32 | > 32 | > 32 | > 32 | – | –
